For this test, the target named is T1, human NOX4 (Homo sapiens, UniProt Q9NPH5).
T1 construct: The full-length human NOX4 (NM_016931.3) transcript was cloned; expressed in transfected cells
T1 sequence (Q9NPH5 1-578): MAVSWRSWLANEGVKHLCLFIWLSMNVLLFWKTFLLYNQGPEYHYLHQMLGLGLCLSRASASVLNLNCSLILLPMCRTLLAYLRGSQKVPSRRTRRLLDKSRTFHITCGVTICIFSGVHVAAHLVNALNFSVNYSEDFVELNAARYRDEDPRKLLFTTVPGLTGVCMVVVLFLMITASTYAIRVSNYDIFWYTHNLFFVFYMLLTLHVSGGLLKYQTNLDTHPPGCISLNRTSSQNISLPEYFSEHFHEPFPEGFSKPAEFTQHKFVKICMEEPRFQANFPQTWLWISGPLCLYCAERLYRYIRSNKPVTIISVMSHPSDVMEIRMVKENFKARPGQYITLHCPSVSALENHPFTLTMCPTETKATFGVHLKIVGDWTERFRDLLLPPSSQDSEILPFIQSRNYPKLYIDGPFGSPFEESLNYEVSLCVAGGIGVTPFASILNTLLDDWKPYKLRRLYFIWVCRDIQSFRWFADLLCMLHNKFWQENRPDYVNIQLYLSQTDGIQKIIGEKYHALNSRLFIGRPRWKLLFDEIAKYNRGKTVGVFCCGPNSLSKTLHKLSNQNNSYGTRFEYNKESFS
T1 sequence (P13498 1-195 partner): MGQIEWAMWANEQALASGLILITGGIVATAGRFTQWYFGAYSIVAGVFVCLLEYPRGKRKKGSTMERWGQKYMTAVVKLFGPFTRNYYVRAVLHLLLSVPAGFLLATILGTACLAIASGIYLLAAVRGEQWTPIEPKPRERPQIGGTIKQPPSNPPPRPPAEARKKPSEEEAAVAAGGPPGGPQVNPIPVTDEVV
The experiment in a line: Amplex Red activity assay (cellular H2O2 formation in hNOX4 T-REx-293 cells). The format is cell-based. As to conditions: tet-induced 24 h, extracellular H2O2 by Amplex Red, 60 min 25° C., geometric mean if determined several times. As for the experimental part:
The nucleotide sequence and the amino acid sequence for the human NOX4 (Entrez Gene ID 50507) is known in the art and are published. The potency and efficacy of the compounds of Formula (I) are assessed for their potential to inhibit the formation of ROS in a cellular assay.
The full-length human NOX4 (NM_016931.3) transcript was cloned into the pDONR™221 vector (Life Technologies™) in order to generate, by site-specific integration according to the recommendation of the manufacturer (Life Technologies™), a recombinant pJTI™ R4 DEST CMV-TO vector containing the NOX4 coding information controlled by tetracycline (tet) responsive tet-on cytomegalovirus promoter (hNOX4 pDEST).
Modified human embryonic kidney cells overexpressing a tet receptor (Jump-In™ T-REx™ HEK293; Life Technologies™) were transfected with the NOX4-containing tet-on vector (hNOX4 pDEST) to generate a stable recombinant cell pool (hNOX4 T-REx-293). hNOX4 T-REx-293 cells were cultured in DMEM containing 4.5 g/L glucose supplemented with 10% fetal calf serum, penicillin (100 U/mL), streptomycin (100 μg/mL), geneticin (1 mg/mL), and blasticidin (5 μg/mL) at 37° C. in air with 5% CO2. Human Nox4 expression was induced with tet (1 μg/mL) for 24 h and extracellular H2O2 was quantified using the Amplex Red reagent (Life Technologies™).
Compounds were prepared as 10 mM stock solution in DMSO vehicle, then diluted in 384-well plates using DMSO followed by a transfer of the dilutions into the assay plate. As a control, diphenylene iodonium was included at a final concentration of 10 μM. Compounds were tested at 10 concentrations in the range from 50 μM highest to 100 nM lowest.
Cellular H2O2 formation was measured using the Amplex Red reagent. […] Cells were seeded into 384-well clear bottom plates at a density of 20 000 cells per well in presence or absence of compounds. […] All wells contained 1.25% of DMSO. The plates were kept at 25° C. for 60 min. The amount of produced resorufin was detected with the Synergy™ Mx microplate reader (BioTek) with excitation and emission wavelengths set to 550 nm and 600 nm, respectively. Fluorescence was measured for each well and the fluorescence at 600 nm wavelength was compared to the fluorescence of the vehicle in place of compound. Inhibitory activities of example compounds were determined by calculating the IC50 value (the concentration of compound needed to inhibit 50% of the enzyme activity). The calculated IC50 values may fluctuate depending on the daily cellular assay performance. Fluctuations of this kind are known to those skilled in the art.

What is called IC50 is the concentration that inhibits the measured activity by half.

Consider `O=C(Nc1ccc2oc(N3CCC3c3ccccc3)nc2c1)c1ccc2c(c1)CCO2` (racemic) [Example 62, rac-2,3-Dihydro-benzofuran-5-carboxylic acid [2-(2-phenyl-azetidin-1-yl)-benzooxazol-5-yl]-amide], for which the IC50 came to 702 nM.

`O=C(Nc1ccc2sc(N3CCC3c3ccccc3)nc2c1)c1ccc2c(c1)CCO2` (racemic) [Example 111, rac-2,3-Dihydro-benzofuran-5-carboxylic acid [2-(2-phenyl-azetidin-1-yl)-benzothiazol-5-yl]-amide]: the IC50 turned out to be 1090 nM.

Turning to `O=C(Nc1ccc2oc(N3CCCCC3)nc2c1)c1ccc2c(c1)CCO2` [Example 2, 2,3-Dihydro-benzofuran-5-carboxylic acid (2-piperidin-1-yl-benzooxazol-5-yl)-amide], the IC50 came out at 639 nM.

Turning to `O=C(Nc1ccc2oc(N3CCCC3)nc2c1)c1ccc2c(c1)CCO2` [Example 3, 2,3-Dihydro-benzofuran-5-carboxylic acid (2-pyrrolidin-1-yl-benzooxazol-5-yl)-amide], the IC50 was 899 nM.

As to `CN1CCN(c2nc3cc(NC(=O)c4ccc5c(c4)CCO5)ccc3o2)CC1` [Example 4, 2,3-Dihydro-benzofuran-5-carboxylic acid [2-(4-methyl-piperazin-1-yl)-benzooxazol-5-yl]-amide], the 50% inhibitory concentration (IC50) came out at 967 nM.

For `O=C(Nc1ccc2oc(N3CCOCC3)nc2c1)c1ccc2c(c1)CCO2` [Example 5, 2,3-Dihydro-benzofuran-5-carboxylic acid (2-morpholin-4-yl-benzooxazol-5-yl)-amide], the IC50 came to 627 nM.

Consider `CCN(CC)c1nc2cc(NC(=O)c3ccc4c(c3)CCO4)ccc2o1` [Example 6, 2,3-Dihydro-benzofuran-5-carboxylic acid (2-diethylamino-benzooxazol-5-yl)-amide], for which the IC50 amounted to 559 nM.

As for `O=C(Nc1ccc2oc(N3CCC(F)(F)CC3)nc2c1)c1ccc2c(c1)CCO2` [Example 7, 2,3-Dihydro-benzofuran-5-carboxylic acid [2-(4,4-difluoro-piperidin-1-yl)-benzooxazol-5-yl]-amide], the half-maximal inhibitory concentration (IC50) was 358 nM.

In the case of `O=C(Nc1ccc2oc(N3CC(F)(F)C3)nc2c1)c1ccc2c(c1)CCO2` [Example 8, 2,3-Dihydro-benzofuran-5-carboxylic acid [2-(3,3-difluoro-azetidin-1-yl)-benzooxazol-5-yl]-amide], the IC50 turned out to be 1890 nM.

Take `O=C(Nc1ccc2oc(N3CCC(F)(F)C3)nc2c1)c1ccc2c(c1)CCO2` [Example 9, 2,3-Dihydro-benzofuran-5-carboxylic acid [2-(3,3-difluoro-pyrrolidin-1-yl)-benzooxazol-5-yl]-amide]: the IC50 came to 573 nM.

As to `COC1CCN(c2nc3cc(NC(=O)c4ccc5c(c4)CCO5)ccc3o2)C1` (stereo not shown) [Example 10, 2,3-Dihydro-benzofuran-5-carboxylic acid [2-(3-methoxy-pyrrolidin-1-yl)-benzooxazol-5-yl]-amide], the IC50 worked out at 711 nM.

Regarding `COC1CCN(c2nc3cc(NC(=O)c4ccc5c(c4)CCO5)ccc3o2)CC1` [Example 11, 2,3-Dihydro-benzofuran-5-carboxylic acid [2-(4-methoxy-piperidin-1-yl)-benzooxazol-5-yl]-amide], the IC50 came out at 358 nM.

For `CC1(O)CN(c2nc3cc(NC(=O)c4ccc5c(c4)CCO5)ccc3o2)C1` [Example 12, 2,3-Dihydro-benzofuran-5-carboxylic acid [2-(3-hydroxy-3-methyl-azetidin-1-yl)-benzooxazol-5-yl]-amide], the IC50 is 688 nM.

`CN(C)CCN(C)c1nc2cc(NC(=O)c3ccc4c(c3)CCO4)ccc2o1` [Example 13, 2,3-Dihydro-benzofuran-5-carboxylic acid {2-[(2-dimethylamino-ethyl)-methyl-amino]-benzooxazol-5-yl}-amide; compound with formic acid]: the IC50 was found to be 5360 nM.

`CN(C)C1CCN(c2nc3cc(NC(=O)c4ccc5c(c4)CCO5)ccc3o2)CC1` [Example 14, 2,3-Dihydro-benzofuran-5-carboxylic acid [2-(4-dimethylamino-piperidin-1-yl)-benzooxazol-5-yl]-amide; compound with formic acid]: the IC50 was determined as 1700 nM.

For the compound `O=C(Nc1ccc2oc(N3CCC34COC4)nc2c1)c1ccc2c(c1)CCO2` [Example 15, 2,3-Dihydro-benzofuran-5-carboxylic acid [2-(6-oxa-1-aza-spiro[3.3]hept-1-yl)-benzooxazol-5-yl]-amide], the IC50 amounted to 405 nM.

Regarding `O=C(Nc1ccc2oc(N3CCCC(F)(F)C3)nc2c1)c1ccc2c(c1)CCO2` [Example 16, 2,3-Dihydro-benzofuran-5-carboxylic acid [2-(3,3-difluoro-pipeiidin-1-yl)-benzooxazol-5-yl]-amide], the IC50 was found to be 389 nM.

On to `O=C(Nc1ccc2oc(N3CC(N4CCOCC4)C3)nc2c1)c1ccc2c(c1)CCO2` [Example 17, 2,3-Dihydro-benzofuran-5-carboxylic acid [2-(3-morpholin-4-yl-azetidin-1-yl)-benzooxazol-5-yl]-amide], for which the IC50 was found to be 2300 nM.

Turning to `CN(c1nc2cc(NC(=O)c3ccc4c(c3)CCO4)ccc2o1)C1(C)COC1` [Example 18, 2,3-Dihydro-benzofuran-5-carboxylic acid {2-[methyl-(3-methyl-oxetan-3-yl)-amino]-benzooxazol-5-yl}-amide], the IC50 turned out to be 568 nM.

In the case of `O=C(Nc1ccc2oc(N3CC(N4CCS(=O)(=O)CC4)C3)nc2c1)c1ccc2c(c1)CCO2` [Example 19, 2,3-Dihydro-benzofuran-5-carboxylic acid {2-[3-(1,1-dioxo-1l6-thiomoipholin-4-yl)-azetidin-1-yl]-benzooxazol-5-yl}-amide], the IC50 is 2890 nM.

`CC1(O)CN(C2CN(c3nc4cc(NC(=O)c5ccc6c(c5)CCO6)ccc4o3)C2)C1` [Example 20, 2,3-Dihydro-benzofuran-5-carboxylic acid [2-(3-hydroxy-3-methyl-[1,3′]biazetidinyl-1′-yl)-benzooxazol-5-yl]-amide]: the IC50 came out at 1400 nM.

`O=C(Nc1ccc2oc(N3CC4(CCO4)C3)nc2c1)c1ccc2c(c1)CCO2` [Example 21, 2,3-Dihydro-benzofuran-5-carboxylic acid [2-(1-oxa-6-aza-spiro[3.3]hept-6-yl)-benzooxazol-5-yl]-amide]: the IC50 worked out at 1610 nM.

On to `O=C(Nc1ccc2oc(N3CCC4(COC4)C3)nc2c1)c1ccc2c(c1)CCO2` [Example 22, 2,3-Dihydro-benzofuran-5-carboxylic acid [2-(2-oxa-6-aza-spiro[3.4]oct-6-yl)-benzooxazol-5-yl]-amide], for which the IC50 was found to be 505 nM.

Consider `O=C(Nc1ccc2oc(N3CC4(CCCOC4)C3)nc2c1)c1ccc2c(c1)CCO2` [Example 23, 2,3-Dihydro-benzofuran-5-carboxylic acid [2-(6-oxa-2-aza-spiro[3.5]non-2-yl)-benzooxazol-5-yl]-amide], for which the IC50 came out at 1470 nM.

Turning to `O=C(Nc1ccc2oc(N3CCCC34COC4)nc2c1)c1ccc2c(c1)CCO2` [Example 24, 2,3-Dihydro-benzofuran-5-carboxylic acid [2-(2-oxa-5-aza-spiro[3.4]oct-5-yl)-benzooxazol-5-yl]-amide], the IC50 is 352 nM.

The values above are taken from patent US11136317B2, “NADPH oxidase 4 inhibitors” (ACTELION PHARMACEUTICALS LTD, priority 2015, dated 2021).
